According to publication PMC6151456, “Screening a Natural Product-Based Library against Kinetoplastid Parasites” (Molecules : A Journal of Synthetic Chemistry and Natural …, 2017):
Like-named read-outs stand apart in the source and are kept apart here.

Legend:
[1] = test system: HEK-293 cells; test: HEK-293 resazurin viability assay (cytotoxicity, selectivity); assay type: cell-based, human
Description: (§1) Primary screening against T. b. brucei was undertaken at 5 µM and for T. cruzi at 10 µM final concentrations.
Cytotoxicity testing was undertaken as previously described.

[2] = test system: THP-1 cells; test: THP-1 cytotoxicity (selectivity); assay type: cell-based, human
Description: (§2) For the primary screen, compounds were prepared as a stock concentration of 5 mM in 100% DMSO and tested in duplicate points for two independent experiments (n = 2) at final assay concentrations of 20 µM and 16.7 µM for the L. donovani intracellular amastigote and promastigote viability assays, respectively. Primary screening against T. b. brucei was undertaken at 5 µM and for T. cruzi at 10 µM final concentrations. […] These compounds were then retested in a 14 point format to determine the IC50 value against the parasite, and against HEK-293, THP-1 and 3T3 cells to determine the selectivity to the parasite. […] A top dose of 20 µM was used in the T. b. brucei assay and 18.3 µM for T.cruzi assay, in 14 point dose repsonse curves as described.

[3] = test system: L. donovani DD8 intracellular amastigotes; test: L. donovani DD8 intracellular amastigote high content imaging assay; assay type: cell-based, Leishmania donovani; conditions: 14 point dose response, top 20 µM
Description: as §2
A high content, high-throughput imaging assay was used to identify compounds active against L. donovani DD8 intracellular amastigotes as described previosuly.

[4] = test system: L. donovani DD8 promastigotes; test: L. donovani DD8 promastigote viability assay (resazurin); assay type: cell-based, Leishmania donovani; conditions: for IC50: 14 point dose response, top 16.7 µM
Description: as §2
This assay was established to assess the activity of the compound library on the extracellular form of the parasites. An initial cell density of 1 × 10^5 parasites/mL was inoculated into a 75 cm^2 flask (in a total of 30 mL of M199 medium + 10% (v/v) HIFBS) and incubated at 27 °C. After 96 h the parasites reached the mid-log phase and were seeded in black, clear bottom 384-well plates (Greiner-bio-one®, Monroe, UT, USA) at a concentration of 5 × 10^5 parasites/mL in a volume of 55 µL using a Bravo automated liquid handling platform (Agilent, Santa Clara, CA, USA). Compound stocks were diluted 1:25 in M199 media without HIFBS using a dilution plate (Greiner-bio-one®, Monroe, UT, USA). The compounds were dispensed in 5 µL using a Bravo and parasites incubated for an additional 68 h at 27 °C. Resazurin (Cayman Chemicals®, Ann Arbor, MI, USA) at 0.142 mM final assay concentration was then dispensed into plates at a volume of 10 µL/well using a Multidrop™ 384 Reagent Dispenser (Thermo Scientific®, Newington, NH, USA) and incubated at 27 °C. The plates were read after 4 h on an EnVision™ Multilabel plate reader (PerkinElmer, Waltham, MA, USA) using fluorometry with an excitation of 530 nm and emission 590 nm. For the L. donovani DD8 promastigote viability assay, 1 µM of amphotericin B was used as positive control and 0.4% DMSO as negative control.

[5] = test system: T. cruzi intracellular amastigotes; test: T. cruzi intracellular amastigote image-based assay; assay type: cell-based, Trypanosoma cruzi; conditions: for IC50: n = 2, top 18.3 µM
Description: as §2
(§3) The efficacy of compounds against T. cruzi was undertaken using a phenotypic, high-throughput image-based assay as previously described.

[6] = test system: 3T3 host cells; test: 3T3 host cell cytotoxicity (selectivity); assay type: cell-based, mouse; conditions: relative to T. cruzi
Description: as §1, §3

[7] = test system: T. b. brucei bloodstream form strain 427; test: T. b. brucei resazurin viability assay; assay type: cell-based, Trypanosoma brucei brucei
Description: as §2
The efficacy of compounds against T. b. brucei bloodstream form was evaluated using a resazurin-based assay, previously described in the literature.

[8] = test system: P. falciparum (Dd2); conditions: cited from earlier work
[9] = test system: P. falciparum (3D7); conditions: cited from earlier work
[10] = test system: L. donovani amastigotes; set-up: method as in PMID 22720099; conditions: previously reported; read-out: IC50, amastigote assay; cited from earlier work
[11] = relative to L. donovani DD8 intracellular amastigotes
[12] = relative to L. donovani DD8 promastigotes
[13] = Leishmania donovani, n = 2, read-out: IC50 (mean ± SD), L. donovani DD8 intracellular amastigotes
[14] = Leishmania donovani, n = 2, read-out: IC50 (mean ± SD), L. donovani DD8 promastigotes
[15] = Trypanosoma cruzi, intracellular amastigotes, read-out: IC50 (mean ± SD), T. cruzi
[16] = Leishmania donovani, read-out: IC50 (mean ± SD), L. donovani DD8 intracellular amastigotes, n = 2
[17] = Trypanosoma brucei, n = 2, 14 point dose response, top 20 µM, read-out: IC50 (mean ± SD), T. b. brucei
[18] = Leishmania donovani, at 16.7 µM
[19] = n = 2, 14 point dose response, top 20 µM, read-out: IC50 (mean ± SD), T. b. brucei
[20] = Trypanosoma brucei, reference compounds, read-out: IC50, T. b. brucei

Compound	Selectivity index (SI) compared to HEK-293 cells [1, 11]	Selectivity index (SI) compared to THP-1 cells [2, 11]	Selectivity index (SI) compared to HEK-293 cells ([1]; relative to T. cruzi)	IC50 [5, 15] [nM]	Selectivity index (SI) compared to 3T3 cells [6]	Selectivity index (SI) compared to HEK-293 cells ([1]; relative to T. b. brucei)	IC50 [7, 17] [nM]	also measured
C[C@@H]1[C@H](O)[C@@H](C)/C=C/C=C/C=C/C=C/C=C/C=C/C=C/[C@H](O[C@@H]2O[C@H](C)[C@@H](O)[C@H](N)[C@@H]2O)C[C@@H]2O[C@](O)(C[C@@H](O)C[C@@H](O)[C@H](O)CC[C@@H](O)C[C@@H](O)CC(=O)O[C@H]1C)C[C@H](O)[C@H]2C(=O)O [Amphotericin B, reference compound]	> 41.65	> 9.61	–	–	–	–	–	Selectivity index (SI) compared to HEK-293 cells [1, 12]: > 68.27; Selectivity index (SI) compared to THP-1 cells [2, 12]: > 16.39; IC50 [3, 13]: 200 ± 20 nM; IC50 [4, 14]: 120 ± 10 nM
O=C(Cn1ccnc1[N+](=O)[O-])NCc1ccccc1 [Benznidazole, reference compound]	–	–	> 44.84	3360 ± 1520	–	–	–	–
COc1c(OC)c2c(c(CCN(C)C)c1SC)Sc1c(CCN(C)C)c(SC)c(OC)c(OC)c1S2 [Compound 1, Lissoclinotoxin E]	> 2.26	1.13	> 2.52	–	> 4.67	> 17.68	–	Selectivity index (SI) compared to HEK-293 cells [1, 12]: > 11.72; Selectivity index (SI) compared to THP-1 cells [2, 12]: 6.88; IC50 ([5]; Trypanosoma cruzi, read-out: IC50 (mean ± SD), T. cruzi, intracellular amastigotes): < 5000 nM; IC50 ([5]; read-out: IC50 (mean ± SD), T. cruzi, intracellular amastigotes, listed as Lissoclinotoxin E (1)): 3920 ± 380 nM; IC50 [3, 16]: < 5000 nM; IC50 ([3]; read-out: IC50 (mean ± SD), L. donovani DD8 intracellular amastigotes, n = 2, listed as Lissoclinotoxin E (1)): 4410 ± 240 nM
CC(C)=CCC[C@]1(C)C=Cc2c(O)c3c(c(CC=C(C)C)c2O1)O[C@]12C(=C[C@@H]4C[C@H]1C(C)(C)O[C@@]2(C/C=C(/C)C(=O)O)C4=O)C3=O [Compound 4, Gambogic acid]	–	–	1.50	1870 ± 70	1.00	7.11	270 ± 40	inhibition at 16.7 µM [4, 18]: 100%
COc1c(C)c2c(c(O)c1C/C=C(\C)CCC(=O)O)C(=O)OC2 [Compound 5, Mycophenolic acid, reference compound]	–	–	0.37	1590 ± 30	0.13	1.01	510 ± 100	–
O=C1N[C@@H]2C(=C[C@H](O)[C@@H](O)[C@H]2O)c2cc3c(c(O)c21)OCO3 [Compound 6, Narciclasine]	–	–	0.21	–	3.28	1.09	–	IC50 [7, 19]: 30 ± 10 nM; IC50 ([5]; intracellular amastigotes, read-out: IC50 (mean ± SD), T. cruzi): 200 ± 10 nM; inhibition of L. donovani DD8 promastigotes ([4]; at 16.7 µM): 100% inhibition at 16.7 µM
Cc1ccc(S(=O)(=O)n2ccc3c2C(=O)C2=C(NCCS2(=O)=O)C3=O)cc1 [Compound 7, 6-tosyl-2,3-dihydro-[1, 4]thiazino[3,2-f]indole-5,9(1H,6H)-dione 4,4-dioxide]	–	–	1.46	3550 ± 380	1.33	4.19	680 ± 10	IC50 ([8]; read-out: IC50, Dd2 strain of P. falciparum): 509 ± 30.9 nM; IC50 ([9]; read-out: IC50, 3D7 strain of P. falciparum): 546 ± 119 nM
O=C1C2=C(C(=O)c3ccccc31)S(=O)(=O)CCN2 [Compound 9, 3,4-dihydro-2H-naphtho[2,3-b][1,4]thiazine-5,10-dione 1,1-dioxide]	–	–	1.11	3820 ± 610	1.24	–	–	IC50 ([5]; intracellular amastigotes, listed as 3,4-Dihydro-2H-naphtho[2,3-b]-[1,4] thiazine-5,10-dione 1,1-dioxide (9), read-out: IC50 (mean ± SD), T. cruzi): 3810 ± 600 nM; inhibition at 16.7 µM [4, 18]: 100%
COc1c(SC)c(CCN(C)C)c2sc3c(CCN(C)C)c(SC)c(OC)c(OC)c3ssc2c1OC [Compound 11, Lissoclinotoxin F]	> 2.40	> 1.20	–	–	–	–	–	Selectivity index (SI) compared to HEK-293 cells [1, 12]: > 3.62; Selectivity index (SI) compared to THP-1 cells [2, 12]: > 1.81; IC50 [3, 16]: 8310 ± 670 nM; IC50 ([4]; Leishmania donovani, read-out: IC50 (mean ± SD), L. donovani DD8 promastigotes, n = 2): 5510 ± 300 nM
CCOC(=O)c1c(C)n(-c2ccc(OC)cc2)c2ccc(O)c(CN(CC)CC)c12 [Compound 12, ethyl 4-((diethylamino)methyl)-5-hydroxy-1-(4-methoxyphenyl)-2-methyl-1H-indole-3-carboxylate]	> 2.97	> 1.50	–	–	–	–	–	activity against T. b. brucei [7]: no significant activity; activity against T. cruzi [5]: no significant activity; IC50 [3, 13]: 11100 ± 310 nM; inhibition at 16.7 µM [4, 18]: 100%
N=C(N)c1ccc(/N=N/Nc2ccc(C(=N)N)cc2)cc1 [Diminazene]	–	–	–	–	–	> 962.75	40 ± 10	IC50 [7, 20]: 40.5 ± 12.8 nM
CCCCCCCCCCCCCCCCOP(=O)([O-])OCC[N+](C)(C)C [Miltefosine, reference compound]	> 13.12	> 7.27	–	–	–	–	–	IC50 [10]: 3100 ± 2300 nM; Selectivity index (SI) compared to HEK-293 cells [1, 12]: > 9.57; Selectivity index (SI) compared to THP-1 cells [2, 12]: > 5.74; IC50 [3, 13]: 2540 ± 570 nM; IC50 [4, 14]: 3480 ± 260 nM
CC1CS(=O)(=O)CCN1/N=C/c1ccc([N+](=O)[O-])o1 (stereo not shown) [Nifurtimox, reference compound]	–	–	> 243.03	620 ± 100	–	–	–	–
N=C(N)c1ccc(OCCCCCOc2ccc(C(=N)N)cc2)cc1 [Pentamidine]	–	–	–	–	–	> 334.52	2 ± 1	IC50 [7, 20]: 2.86 ± 1.46 nM
COc1ccc(C[C@H](N)C(=O)N[C@H]2[C@@H](O)[C@H](n3cnc4c(N(C)C)ncnc43)O[C@@H]2CO)cc1 [Puromycin, reference compound]	–	–	0.150	1650 ± 350	–	12.96	30	IC50 [7, 20]: 39 ± 6.09 nM
Psammaplysin F [Compound 14]	–	–	> 3.51	–	> 1.90	–	–	IC50 ([8]; read-out: IC50, P. falciparum Dd2): 1400 nM; IC50 ([9]; read-out: IC50, P. falciparum 3D7): 870 nM; IC50 ([5]; intracellular amastigotes, listed as Psammaplysin F (14), read-out: IC50 (mean ± SD), T. cruzi): 5630 ± 760 nM
Spermatinamine [Compound 2]	0.64	0.80	–	–	–	5.89	–	Selectivity index (SI) compared to HEK-293 cells [1, 12]: 0.33; Selectivity index (SI) compared to THP-1 cells [2, 12]: 0.41; IC50 [7, 19]: 1000 ± 260 nM; IC50 ([9]; read-out: antimalarial IC50, P. falciparum (3D7)): 230 nM; IC50 ([3]; n = 2, read-out: IC50 (mean ± SD), L. donovani DD8 intracellular amastigotes): 6150 ± 50 nM; IC50 ([4]; n = 2, read-out: IC50 (mean ± SD), L. donovani DD8 promastigotes): 11900 ± 560 nM
